We go through five compounds from PMC10844371 (Diabetologia, 2023).

For test [1], the system named is PKA activity in alpha cells. Briefly: PKA activity measurements (AKAR3) in alpha cells in intact islets. In kind it is cell-based, mouse. How it is done: PKA activity was measured using AKAR3 as previously described. The cells were continuously superfused at a rate of 60 μl/min with EC4 (ESM Table 2).
Test [2] concerns isolated mouse pancreatic islets. Briefly: Somatostatin secretion in isolated mouse islets (RIA). In kind it is cell-based. Conditions: 1 mmol/l glucose, groups of 20 islets. Here is the method:
(§1) Mouse islets were used acutely, except for studies with PTX, wherein islets were treated overnight with the toxin. Human islets were maintained in culture for up to 48 h in RPMI medium containing 10% (vol./vol.) FCS, 1% (vol./vol.) penicillin/streptomycin and 5 mmol/l glucose. Experiments were conducted as previously described. Islets were incubated in 0.3 ml EC1 or EC2 media (ESM Table 2) supplemented with glucose and other reagents as indicated. Glucagon was determined by ELISA (Mercodia).
(§2) Insulin and somatostatin were determined by RIA (Millipore and Diasource ImmunoAssays, respectively) as described previously. In these experiments, rates of release are expressed as % of contents unless otherwise indicated.

The next test concerns human pancreatic islets. Description: Glucagon secretion in human islets (ELISA). It counts as cell-based. Conditions: human islets, 10 pmol/l, 1 mmol/l glucose. Here is the method:
Human pancreatic islets were isolated (with ethical approval and clinical consent) as previously described. Islets from the pancreases of 18 healthy donors and five donors with type 2 diabetes were used (see electronic supplementary material [ESM] Table 1; ESM Human islets checklist).
as §1
(§3) All data are reported, unless otherwise stated, as mean values ± SEM for the indicated number of experiments using islets from multiple mice. For hormone release studies, islets were isolated and pooled from 4–16 mice. These islets were then subdivided into groups of 12–20 size-matched islets. Each unique set of islets counted as an experiment with the experiments repeated on 2–4 days. Similarly, each unique group of human islets was treated as an experiment. […] In the Ca^2+ imaging and granule docking experiment, each cell represents an experiment making sure that cells from multiple donors/animals were used. For the in vivo experiments and the perfused pancreas, each mouse count represents an experiment. For two groupings, a t test was conducted. For multiple comparisons, one-way ANOVA was conducted. All statistical tests were performed using Graphpad Prism (version 9.1.0; graphpad.com). It was ascertained that the data were normally distributed.

Test [3] has as its system isolated mouse pancreatic islets. It counts as cell-based. Here is the method:
Experiments were conducted as previously described. Islets were incubated in 0.3 ml EC1 or EC2 media (ESM Table 2) supplemented with glucose and other reagents as indicated.
as §3, with “graphpad.com).” for “graphpad.com). It was ascertained that the data were normally distributed.”

Test [4] shares this test system. Description: Insulin secretion in isolated mouse islets (RIA). In kind it is cell-based. Here is the method:
Mouse islets were used acutely, except for studies with PTX, wherein islets were treated overnight with the toxin. Human islets were maintained in culture for up to 48 h in RPMI medium containing 10% (vol./vol.) FCS, 1% (vol./vol.) penicillin/streptomycin and 5 mmol/l glucose. Experiments were conducted as previously described. Islets were incubated in 0.3 ml EC1 or EC2 media (ESM Table 2) supplemented with glucose and other reagents as indicated.
as §2

A further test concerns mouse alpha cells. Description: TIRF imaging of docked secretory granules in mouse alpha cells. It counts as cell-based. Here is the method:
Cells were imaged using total internal reflection fluorescence (TIRF) microscopy (AxioObserver Z1 with a ×100/1.45 objective [Carl Zeiss] and a diode-pumped solid state laser at 491 nm). For these measurements, EC1 was used (ESM Table 2). Images from cells infected with preproglucagon promoter (PPPG)-neuropeptide Y (NPY)-enhanced green fluorescent protein (EGFP) virus were recorded using an electron-multiplying charge-coupled device camera (Photometrics Evolve) using ZEN blue. Single images of cells were acquired to measure the number of docked granules. Incoming and outgoing granules during visiting, docking and undocking were determined from multiple frame movies as described previously. Candidate docking or undocking events were found manually as granules that approached the TIRF field with an axial component and became laterally confined for at least two frames. We defined docking as granules that remained confined for at least 1 min. Visitors were those granules that remained for <1 min after appearing at the plasma membrane. Undocking was defined as slow movement of a previously docked granule away from its docking site. Granule density was calculated using a script that used the built-in ‘find maxima’ function in ImageJ (version 1.53c; http://rsbweb.nih.gov/ij) for spot detection.

Another test concerns P/Q-type Ca^2+ channels. Description: [Ca2+]i imaging of depolarisation-evoked Ca2+ entry in alpha cells (Gcg-GCaMP6f islets). In kind it is cell-based, mouse. Conditions: in the presence of GLP-1(9–36) 10 pmol/l; p=0.26. How it is done: For live-cell cytoplasmic free Ca^2+ concentration ([Ca^2+]i) imaging experiments, Gcg-GCaMP6f islets were immobilised to a poly-L-lysine-coated coverslip fixed in a custom-built imaging chamber filled with EC3 (ESM Table 2). [Ca^2+]i was measured in islets from mice expressing GCaMP6f in alpha cells. [Ca^2+]i imaging experiments were then performed using an inverted LSM 510 confocal microscope (Zeiss) controlled with ZEN Black (Zeiss), using a ×40/1.3 oil immersion objective. Time-lapse images were collected every 0.98 s with a frame size of 256×256 pixels, with the bath solution (EC3) perfused at a rate of 0.4 ml/min and heated to 37°C. GCaMP6f was excited by an argon laser (488 nm) and emission was collected at 510 nm.
[Ca^2+]i imaging videos were analysed using the Fiji imaging processing package. The mean fluorescence (F) of each region of interest was normalised to baseline signal (F0) and expressed as F/F0 before exporting into ClampFit (version 10.7; Molecular Devices, CA, USA), where baseline was corrected and AUC was calculated.

In the case of `CC[C@H](C)[C@H](NC(=O)[C@H](Cc1ccccc1)NC(=O)[C@H](CCC(=O)O)NC(=O)[C@H](CCCCN)NC(=O)[C@H](C)NC(=O)[C@H](C)NC(=O)[C@H](CCC(N)=O)NC(=O)CNC(=O)[C@H](CCC(=O)O)NC(=O)[C@H](CC(C)C)NC(=O)[C@H](Cc1ccc(O)cc1)NC(=O)[C@H](CO)NC(=O)[C@H](CO)NC(=O)[C@@H](NC(=O)[C@H](CC(=O)O)NC(=O)[C@H](CO)NC(=O)[C@@H](NC(=O)[C@H](Cc1ccccc1)NC(=O)[C@@H](NC(=O)CNC(=O)[C@H](CCC(=O)O)NC(=O)[C@H](C)NC(=O)[C@@H](N)Cc1c[nH]cn1)[C@@H](C)O)[C@@H](C)O)C(C)C)C(=O)N[C@@H](C)C(=O)N[C@@H](Cc1c[nH]c2ccccc12)C(=O)N[C@@H](CC(C)C)C(=O)N[C@H](C(=O)N[C@@H](CCCCN)C(=O)NCC(=O)N[C@@H](CCCNC(=N)N)C(N)=O)C(C)C` [GLP-1(7–36)], in test [1] (10 pmol/l), the “effect on PKA activity in alpha cells” value was “no inhibitory effect”. Also, in test [1] (10,000 pmol/l), the “effect on cAMP/PKA activity in alpha cells” value is reported as “increased cAMP/PKA activity”. Besides, in test [2], the “concentration at which stimulation of somatostatin secretion was already detectable” value stood at 10 pmol/L. The “inhibition of glucagon secretion” value is ~ 50% in the test with human pancreatic islets and ~ 50% in test [3] (islets cultured overnight without PTX, 1 mmol/l glucose). In addition, the “inhibitory effect on glucagon secretion in Glp1r−/− mouse islets” value in test [3] (10 pmol/l, Glp1r−/− islets, 1 mmol/l glucose) is “persisted”. Moreover, the “inhibitory effect on glucagon secretion in Glp1r−/− islets after PTX” value in test [3] (10 pmol/l, Glp1r−/− islets, PTX pretreatment) is listed as “abolished”. In addition, the “change of the inhibitory effect on glucagon secretion by exendin(9–39)” value in test [3] (10 pmol/l, exendin(9–39) 1 μmol/l) is listed as “reduced”. The “glucagonostatic effect in the presence of exendin(9–39)” value in test [3] (10 pmol/l, exendin(9–39) 1 μmol/l, 1 mmol/l glucose) is listed as “retained their glucagonostatic effect”. In addition, the “glucagonostatic effect in the presence of the PKA inhibitor 8-Br-Rp-cAMPS” value in test [3] (8-Br-Rp-cAMPS 10 μmol/l, 1 mmol/l glucose) was “not affected”. Moreover, the “glucagonostatic effect remaining with exendin(9–39), in the presence of sitagliptin” value in test [3] (exendin(9–39) plus DPP-4 inhibitor sitagliptin) is recorded as “abolished”. Also, the “inhibitory effect on glucagon secretion after PTX pretreatment” value in test [3] (overnight PTX 100 ng/ml, 1 mmol/l glucose) is given as “unaffected”. The IC50 in test [3] (read-out: half-maximal inhibitory concentration (IC50) for inhibition of glucagon secretion, isolated mouse islets, 1 mmol/l glucose, groups of 12 islets from 4–6 mice, glucagon ELISA) worked out at 2.5 pM. Also, in test [4] (Glp1r−/− islets), the “insulinotropic effect in Glp1r−/− mouse islets” value is “lost”. For the same compound, in test [4] (mouse islets, 1 mmol/l glucose), the “concentrations at which stimulation of insulin secretion attained statistical significance” value is at least 100 pmol/L.

As to `CCCOc1ccc(Br)cc1-c1cc(-c2ccc(Cl)cc2)[nH]c1-c1ccncc1` [L-168049], the “effect on the glucagonostatic effect of GLP-1(9–36)” value in test [3] (mouse islets, L-168049 100 nmol/l, GLP-1(9–36) 10 pmol/l) is “abolished”.

In the case of `CC1=NS(=O)(=O)c2cc(Cl)ccc2N1` [diazoxide], the “reduction of submembrane granule density” value with mouse alpha cells (200 μmol/l) is given as ~ 40%.

Regarding `CC(C)NCC(O)c1ccc(O)c(O)c1` (stereo not drawn) [isoprenaline], in test [3] (mouse islets, 1 mmol/l glucose), the “stimulation of glucagon secretion” value was over 2.2 fold.

Take ω-agatoxin: the “reduction of the number of docked granules” value in the test with mouse alpha cells (200 nmol/l) is “to the same extent as GLP-1(9–36)”. In addition, the “effect on glucagon secretion” value in test [3] (200 nmol/l, 1 mmol/l glucose) is listed as “inhibited glucagon secretion nearly as strongly as GLP-1(9–36)”. The “further change of Ca2+ entry on addition in the presence of GLP-1(9–36)” value in the test on P/Q-type Ca^2+ channels was −8±4%.
